Measurements taken from US8680290B2, “Isoxazoline derivatives and their use as herbicides” (Syngenta Limited, priority 2004, dated 2014).

Legend:
[1] = tested on: Monocotyledonous and dicotyledonous test plants; assay: Example B1 herbicidal action, application post-emergence (Table B1a); type: in vivo; settings: 250 g/ha, evaluated after 3 weeks, scale 0-10
Outline: (§1)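 Visual damage rating, 10 = plant dead and 0 = unharmed, taken at 3 weeks for post-emergence and 4 weeks for pre-emergence treatment. Application by spray of formulated aqueous solution either immediately after sowing or at 8–9 days' growth, with mono- and dicot plants kept in a greenhouse.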

[2] = tested on: Monocotyledonous and dicotyledonous test plants; assay: Example B1 herbicidal action, application pre-emergence (Table B1b); type: in vivo; settings: 250 g/ha, evaluated after 4 weeks
Outline: as §1

[3] = tested on: Monocotyledonous and dicotyledonous test plants; assay: Example B2 herbicidal action, application post-emergence, 96-cell seed trays (Table B2a); type: in vivo; settings: 1000 g/ha
Procedure: Monocotyledonous and dicotyledonous test plants were sown in sterilised standard soil in seed trays each having 96 cells. After one day (pre-emergence) or after 8 to 9 days cultivation (post-emergence) under controlled conditions in a climatic chamber (cultivation at 17/23° C.; 13 hours light; 50-60% humidity; after application at 19/24° C.), the plants were treated with an aqueous spray solution of 1000 mg/l of the active ingredient used (rate of application: […]; incl. 10% DMSO as solvent). The plants were grown on in the climatic chamber until the test was evaluated (10 total damage to plant, 0=no damage to plant) after 9 or 13 days.

[4] = tested on: Monocotyledonous and dicotyledonous test plants; assay: Example B2 herbicidal action, application pre-emergence, 96-cell seed trays (Table B2b); type: in vivo; settings: 1000 g/ha
Outline: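 Mono- and dicot plants in sterilised soil, 96-cell trays, sprayed 1 day after sowing (pre-emergence) or after 8–9 days growth (post-emergence) with aqueous 1000 mg/l active ingredient, 10% DMSO; climatic chamber 17/23° C, 13 h light. Damage scored 0–10 after 9 or 13 days.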

Row | Compound | herbicidal damage rating, Abutilon [1] | herbicidal damage rating, Amaranthus [1] | herbicidal damage rating, Digitaria [1] | herbicidal damage rating, Panicum [1] | herbicidal damage rating, Setaria [1] | herbicidal damage rating, Sida [1] | herbicidal action (damage rating 0-10), Amaranthus [2] | herbicidal action (damage rating 0-10), Digitaria [2] | herbicidal action (damage rating 0-10), Panicum [2] | herbicidal action (damage rating 0-10), Setaria [2] | herbicidal action (damage rating 0-10), Sida [2] | herbicidal action (damage rating 0-10), Agrostis [3] | herbicidal action (damage rating 0-10), Amaranthus [3] | herbicidal action (damage rating 0-10), Poa [3] | herbicidal action (damage rating 0-10), Setaria [3] | herbicidal action (damage rating 0-10), Agrostis [4] | herbicidal action (damage rating 0-10), Digitaria [4] | herbicidal action (damage rating 0-10), Poa [4] | herbicidal action (damage rating 0-10), Setaria [4] | melting point
1 | CC1(C)CC([S+]([O-])C(Cl)c2c(F)cccc2Cl)=NO1 (single isomer, unassigned) [1.34] | 3 | 5 | 5 | 8 | 6 | 3 | 9 | 9 | 10 | 10 | 7 | 8 | 5 | 8 | 8 |  |  |  |  | 
2 | CC1(C)CC(S(=O)(=O)C(F)c2c(F)cccc2F)=NO1 (centres unmarked) [1.06] |  |  |  |  |  |  | 10 | 5 | 10 | 9 | 7 | 8 | 8 | 8 | 7 | 10 | 10 | 10 | 10 | 
3 | CC1(C)CC(S(=O)(=O)C(Cl)c2c(F)cccc2Cl)=NO1 (centres unmarked) [1.32] |  |  |  |  |  |  |  |  |  |  |  | 8 | 6 | 8 | 6 |  |  |  |  | 
4 | CC1(C)CC(S(=O)(=O)C(Cl)c2c(F)cccc2F)=NO1 (centres unmarked) [Compound No. 1.07, 3-[chloro-(2,6-difluoro-phenyl)-methanesulfonyl]-5,5-dimethyl-4,5-dihydroisoxazole] | 5 | 3 | 5 | 7 | 7 | 2 | 8 | 10 | 10 | 10 | 7 | 8 | 7 | 8 | 7 | 10 | 10 | 10 | 10 | 
5 | CC1(C)CC(S(=O)(=O)C(I)c2c(F)cccc2F)=NO1 (centres unmarked) [Compound No. 1.25, 3-[(2,6-difluoro-phenyl)-iodo-methanesulfonyl]-5,5-dimethyl-4,5-dihydroisoxazole] | 5 |  | 4 | 3 | 3 | 4 | 10 | 10 | 10 | 10 | 3 |  |  |  |  | 10 | 9 | 10 | 8 | 156 °C
6 | CC1(C)CC(S(=O)(=O)C(Cl)(Cl)c2c(F)cccc2F)=NO1 [Compound No. 1.26, 3-[dichloro-(2,6-difluoro-phenyl)-methanesulfonyl]-5,5-dimethyl-4,5-dihydroisoxazole] | 4 |  | 4 | 3 | 5 |  | 10 | 9 | 10 | 10 | 4 |  |  |  |  | 10 | 10 | 10 | 9 | 126 °C
7 | CC(=O)C(c1c(F)cccc1F)S(=O)(=O)C1=NOC(C)(C)C1 (centres unmarked) [Compound No. 1.27, 1-(2,6-difluorophenyl)-1-(5,5-dimethyl-4,5-dihydroisoxazole-3-sulfonyl)-propan-2-one] | 4 |  | 2 | 5 | 3 | 4 | 7 | 4 | 9 | 5 | 2 |  |  |  |  | 10 | 9 | 9 | 9 | 116 °C
8 | Cc1cccc(C(Cl)(Cl)S(=O)(=O)C2=NOC(C)(C)C2)c1 [Compound No. 1.31, 3-[dichloro-m-tolyl-methanesulfonyl]-5,5-dimethyl-4,5-dihydroisoxazole] | 3 |  | 1 | 7 | 0 | 7 | 0 | 9 | 9 | 7 | 0 |  |  |  |  | 9 | 9 | 9 | 10 | 89 °C
